Assay results as given in ChEMBL document CHEMBL1147660, “Discovery of SCH446211 (SCH6): a new ketoamide inhibitor of the HCV NS3 serine protease and HCV subgenomic RNA replication” (J Med Chem, 2006).
Numbered stars: 1 amine (or outer) side, 2 acyl side, 3 side chain; on linkers, the order of the positions; unused ones are H or OH. Square brackets hold non-standard residues; d marks the D form. Peptide text beside a SMILES is read from it. * marks the point of attachment. Pro(3R,4S-CMe2) = CC1(C)[C@@H]2[C@@H](C(=O)O)NC[C@@H]21; Pro(4,4-S(CH2)3S) = O=C(O)[C@@H]1CC2(CN1)SCCCS2; Pro(4,4-SCH2CH2S) = O=C(O)[C@@H]1CC2(CN1)SCCS2; X4 = O=C(C(=O)[*:2])C(CCC(F)(F)F)N[*:1]; Pro(4,4-Me2) = CC1(C)CN[C@H](C(=O)O)C1; Pro(4R-Me) = C[C@H]1CN[C@H](C(=O)O)C1; Isobutyloxycarbonyl = CC(C)COC(=O)*; X1 = O=C(C(=O)[*:2])C(CC1CC1)N[*:1]; X3 = CCCCC(N[*:1])C(=O)C(=O)[*:2]; Hyp = O=C(O)[C@@H]1C[C@@H](O)CN1; X2 = CCCC(N[*:1])C(=O)C(=O)[*:2]; Chg = N[C@H](C(=O)O)C1CCCCC1; Phg = N[C@H](C(=O)O)c1ccccc1; Tle = CC(C)(C)[C@H](N)C(=O)O; Boc = CC(C)(C)OC(=O)*; tBu = CC(C)(C)*

Assays:
NS3 = NS3 (Hepatitis C virus, UniProt A3EZJ3); test: Binding affinity to HCV NS3 serine protease; parameters: species or system Hepacivirus hominis
Hepatitis C virus = test: Inhibition of HCV replicon; type: functional, Hepacivirus hominis
[1] = AUC in rat at 10 mg/kg, po; type: ADME, organism-based; parameters: dose 10 mg/kg, route oral; conditions: plasma
[2] = Cmax in rat at 10 mg/kg, po; type: ADME, organism-based; parameters: dose 10 mg/kg, route oral; conditions: in vivo
[3] = AUC in rat at 5 mg/kg, iv; type: ADME, organism-based; parameters: dose 5 mg/kg, route intravenous; conditions: plasma
[4] = Half life in rat at 5 mg/kg, iv; type: ADME, organism-based; parameters: dose 5 mg/kg, route intravenous; conditions: in vivo
[5] = Clearance in rat; type: ADME, organism-based; conditions: in vivo
[6] = Oral bioavailability in rat at 10 mg/kg, po; type: ADME, organism-based; conditions: in vivo
[7] = AUC in rat at 10 mg/kg, sc; type: ADME, organism-based; parameters: dose 10 mg/kg, route subcutaneous; conditions: plasma
[8] = Selectivity for HCV NS3 serine protease over HNE
[9] = Cmax in rat at 10 mg/kg, sc; type: ADME, organism-based; parameters: dose 10 mg/kg, route subcutaneous; conditions: in vivo
[10] = Oral bioavailability in rat at 10 mg/kg, sc; type: ADME, organism-based; conditions: in vivo, subcutaneous
[11] = AUC in monkey at 3 mg/kg, po; type: ADME, organism-based, Macaca mulatta; parameters: dose 3 mg/kg, route oral; conditions: rhesus monkey, plasma
[12] = Cmax in monkey at 3 mg/kg, po; type: ADME, organism-based, Macaca mulatta; parameters: dose 3 mg/kg, route oral; conditions: rhesus monkey, in vivo
[13] = AUC in monkey at 1 mg/kg, iv; type: ADME, organism-based, Macaca mulatta; parameters: dose 1 mg/kg, route intravenous; conditions: rhesus monkey, plasma
[14] = Half life in monkey at 1 mg/kg, iv; type: ADME, organism-based, Macaca mulatta; parameters: dose 1 mg/kg, route intravenous; conditions: rhesus monkey, in vivo
[15] = Clearance in monkey; type: ADME, organism-based, Macaca mulatta; conditions: rhesus monkey, in vivo
[16] = Oral bioavailability in monkey at 3 mg/kg, po; type: ADME, organism-based, Macaca mulatta; conditions: rhesus monkey, in vivo
[17] = AUC in monkey at 1 mg/kg, sc; type: ADME, organism-based, Macaca mulatta; parameters: dose 1 mg/kg, route subcutaneous; conditions: rhesus monkey, plasma
[18] = Cmax in monkey at 1 mg/kg, sc; type: ADME, organism-based, Macaca mulatta; parameters: dose 1 mg/kg, route subcutaneous; conditions: rhesus monkey, in vivo
[19] = Oral bioavailability in monkey at 1 mg/kg, sc; type: ADME, organism-based, Macaca mulatta; conditions: rhesus monkey, in vivo, subcutaneous

NS3, sequence (A3EZJ3 whole entry): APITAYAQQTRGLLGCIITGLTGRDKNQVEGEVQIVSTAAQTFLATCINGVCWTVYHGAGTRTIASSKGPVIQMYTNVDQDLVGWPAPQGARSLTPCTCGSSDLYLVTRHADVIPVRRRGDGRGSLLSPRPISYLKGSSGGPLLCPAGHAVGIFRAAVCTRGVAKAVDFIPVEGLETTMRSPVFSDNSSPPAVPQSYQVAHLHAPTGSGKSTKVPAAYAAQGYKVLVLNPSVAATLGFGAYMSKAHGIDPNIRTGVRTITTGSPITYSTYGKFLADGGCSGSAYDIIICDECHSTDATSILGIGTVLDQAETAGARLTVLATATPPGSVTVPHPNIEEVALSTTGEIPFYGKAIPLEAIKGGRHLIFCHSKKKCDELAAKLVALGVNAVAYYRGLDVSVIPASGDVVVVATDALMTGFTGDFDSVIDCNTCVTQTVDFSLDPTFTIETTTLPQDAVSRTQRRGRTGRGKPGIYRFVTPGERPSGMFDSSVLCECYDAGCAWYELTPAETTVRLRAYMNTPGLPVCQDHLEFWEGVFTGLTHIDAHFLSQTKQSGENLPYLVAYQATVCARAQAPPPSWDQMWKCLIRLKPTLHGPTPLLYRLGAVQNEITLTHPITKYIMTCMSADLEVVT

Row | SMILES | Ki (NS3) [nM] | IC90 (Hepatitis C virus) [nM] | Selectivity ratio [8] | further results
1 | CCCC(NC(=O)[C@@H]1CC(C)(C)CN1C(=O)[C@@H](NC(=O)OCC(C)C)C(C)(C)C)C(=O)C(=O)NCC(=O)N[C@H](C(=O)N(C)C)c1ccccc1 (some centres undefined) (Isobutyloxycarbonyl-[Tle][Pro(4,4-Me2)][X2]G[Phg]-NMe2) | 36 |  |  | 
2 | CCCC(NC(=O)[C@@H]1C[C@@H](OC(C)(C)C)CN1C(=O)[C@@H](NC(=O)OCC(C)C)C(C)(C)C)C(=O)C(=O)NCC(=O)N[C@H](C(=O)N(C)C)c1ccccc1 (some centres undefined) (Isobutyloxycarbonyl-[Tle][Hyp](tBu)[X2]G[Phg]-NMe2) | 19 | 2000 |  | 
3 | CCCC(NC(=O)[C@@H]1CC2(CCCC2)CN1C(=O)[C@@H](NC(=O)OCC(C)C)C1CCCCC1)C(=O)C(=O)NCC(=O)N[C@H](C(=O)N(C)C)c1ccccc1 (some centres undefined) | 26 |  |  | 
4 | CCCC(NC(=O)[C@@H]1CC2(CN1C(=O)[C@@H](NC(=O)OCC(C)C)C1CCCCC1)SCCS2)C(=O)C(=O)NCC(=O)N[C@H](C(=O)N(C)C)c1ccccc1 (some centres undefined) (Isobutyloxycarbonyl-[Chg][Pro(4,4-SCH2CH2S)][X2]G[Phg]-NMe2) | 26 |  |  | 
5 | CN(C)C(=O)[C@@H](NC(=O)CNC(=O)C(=O)C(CC1CC1)NC(=O)[C@@H]1[C@@H]2[C@H](CN1C(=O)[C@@H](NC(=O)OC(C)(C)C)C(C)(C)C)C2(C)C)c1ccccc1 (stereo partly drawn) (Boc-[Tle][Pro(3R,4S-CMe2)][X1]G[Phg]-NMe2) | 3.8 | 100 | 1000 | AUC [1]: 0.35 µM·h; Cmax [2]: 120 nM; AUC [3]: 4.7 µM·h; half-life [4]: 312 min; clearance [5]: 24 mL/min/kg; bioavailability [6]: 4%; AUC [7]: 19.5 µM·h; Cmax [9]: 4.37 µM; bioavailability [10]: 100%; AUC [11]: 0.03 µM·h; Cmax [12]: 30 nM; AUC [13]: 3.4 µM·h; half-life [14]: 318 min; clearance [15]: 6.9 mL/min/kg; bioavailability [16]: 1%; AUC [17]: 5.6 µM·h; Cmax [18]: 1600 nM; bioavailability [19]: 100%
6 | CN(C)C(=O)[C@@H](NC(=O)CNC(=O)C(=O)C(CCC(F)(F)F)NC(=O)[C@@H]1[C@@H]2[C@H](CN1C(=O)[C@@H](NC(=O)OC(C)(C)C)C(C)(C)C)C2(C)C)c1ccccc1 (stereo partly drawn) (Boc-[Tle][Pro(3R,4S-CMe2)][X4]G[Phg]-NMe2) | 2 | 400 | 4600 | 
7 | CCCC(NC(=O)[C@@H]1[C@H]2CC(C)(C)C[C@H]2CN1C(=O)[C@@H](NC(=O)OCC(C)C)C(C)(C)C)C(=O)C(=O)NCC(=O)N[C@H](C(=O)N(C)C)c1ccccc1 (some centres undefined) | 15 | 900 |  | 
8 | CCCC(NC(=O)[C@@H]1[C@@H]2[C@H](CN1C(=O)[C@@H](NC(=O)OCC(C)C)C1CCCCC1)C2(C)C)C(=O)C(=O)NCC(=O)N[C@H](C(=O)N(C)C)c1ccccc1 (stereo partly drawn) (Isobutyloxycarbonyl-[Chg][Pro(3R,4S-CMe2)][X2]G[Phg]-NMe2) | 10 | 200 | 4 | 
9 | CCCC(NC(=O)[C@@H]1[C@@H]2[C@H](CN1C(=O)[C@@H](NC(=O)OCC(C)C)C(C)(C)C)C2(C)C)C(=O)C(=O)NCC(=O)N[C@H](C(=O)N(C)C)c1ccccc1 (stereo partly drawn) (Isobutyloxycarbonyl-[Tle][Pro(3R,4S-CMe2)][X2]G[Phg]-NMe2) | 16 | 350 | 81 | 
10 | CCCC(NC(=O)[C@@H]1CC2(CN1C(=O)[C@@H](NC(=O)OCC(C)C)C1CCCCC1)SCCCS2)C(=O)C(=O)NCC(=O)N[C@H](C(=O)N(C)C)c1ccccc1 (some centres undefined) (Isobutyloxycarbonyl-[Chg][Pro(4,4-S(CH2)3S)][X2]G[Phg]-NMe2) | 28 |  |  | 
11 | CCCC(NC(=O)[C@@H]1[C@H]2CC(C)(C)O[C@H]2CN1C(=O)[C@@H](NC(=O)OCC(C)C)C(C)(C)C)C(=O)C(=O)NCC(=O)N[C@H](C(=O)N(C)C)c1ccccc1 (some centres undefined) | 10 | 1800 |  | 
12 | CCCCC(NC(=O)[C@@H]1[C@@H]2[C@H](CN1C(=O)[C@@H](NC(=O)OC(C)(C)C)C(C)(C)C)C2(C)C)C(=O)C(=O)NCC(=O)N[C@H](C(=O)N(C)C)c1ccccc1 (stereo partly drawn) (Boc-[Tle][Pro(3R,4S-CMe2)][X3]G[Phg]-NMe2) | 10 | 400 | 964 | 
13 | CCCC(NC(=O)[C@@H]1CCCN1C(=O)[C@@H](NC(=O)OCC(C)C)C1CCCCC1)C(=O)C(=O)NCC(=O)N[C@H](C(=O)N(C)C)c1ccccc1 (some centres undefined) (Isobutyloxycarbonyl-[Chg]P[X2]G[Phg]-NMe2) | 10000 |  |  | 
14 | CCCC(NC(=O)[C@@H]1[C@@H]2[C@H](CN1C(=O)[C@@H](NC(=O)OC(C)(C)C)C(C)(C)C)C2(C)C)C(=O)C(=O)NCC(=O)N[C@H](C(=O)N(C)C)c1ccccc1 (stereo partly drawn) (Boc-[Tle][Pro(3R,4S-CMe2)][X2]G[Phg]-NMe2) | 14 | 250 | 147 | 
15 | CCCC(NC(=O)[C@@H]1C[C@@H](C)CN1C(=O)[C@@H](NC(=O)OCC(C)C)C(C)(C)C)C(=O)C(=O)NCC(=O)N[C@H](C(=O)N(C)C)c1ccccc1 (stereo partly drawn) (Isobutyloxycarbonyl-[Tle][Pro(4R-Me)][X2]G[Phg]-NMe2) | 140 |  |  | 
16 | CCCC(NC(=O)[C@@H]1C[C@@H](SC(C)(C)C)CN1C(=O)[C@@H](NC(=O)OCC(C)C)C(C)(C)C)C(=O)C(=O)NCC(=O)N[C@H](C(=O)N(C)C)c1ccccc1 (some centres undefined) | 120 |  |  | 
